The text below walks through data of patent US7968534B2, “Sulfonamide derivatives, preparation thereof and use thereof as antagonists of orexin 2 receptors” (Sanofi-Aventis, priority 2006, dated 2011).

Structures can show the parent of a compound that is named as a salt. Where two headings read alike, the source gives them in different places.

The target in one test is T1, human orexin 2 receptors (Homo sapiens, UniProt O43614).
T1 construct: expressed in transfected cells; host or cells: CHO cells (membranes)
T1 sequence (O43614 1-444): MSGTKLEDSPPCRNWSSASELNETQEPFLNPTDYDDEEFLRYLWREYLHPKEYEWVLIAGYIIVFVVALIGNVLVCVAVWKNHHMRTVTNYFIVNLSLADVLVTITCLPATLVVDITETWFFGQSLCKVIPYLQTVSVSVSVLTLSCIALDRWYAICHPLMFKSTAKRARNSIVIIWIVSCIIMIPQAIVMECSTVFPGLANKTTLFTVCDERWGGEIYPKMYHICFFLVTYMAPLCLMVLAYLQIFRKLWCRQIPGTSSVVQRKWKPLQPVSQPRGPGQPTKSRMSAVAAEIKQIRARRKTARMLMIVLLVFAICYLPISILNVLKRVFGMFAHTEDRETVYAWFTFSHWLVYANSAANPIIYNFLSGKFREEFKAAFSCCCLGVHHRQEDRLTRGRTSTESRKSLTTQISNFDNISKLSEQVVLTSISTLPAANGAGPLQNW
Nature of the test: in vitro binding test: displacement of radioiodinated orexin A, membranes of CHO cells. The settings on record: read-out: IC50 OX 2. Here is the method: (§1) They were in particular tested for their effects. […] This method consists in studying the displacement of radioiodinated orexin A attached to the human orexin 2 receptors expressed in CHO cells. The test is performed on membranes in a 50 mM Hepes incubation buffer containing 1 mM MgCl2, 25 mM CaCl2, 0.025% NaN3, 1% bovine serum albumin (BSA) and 100 pM of ligand for 30 minutes at 25° C. The reaction is stopped by filtration and washing on a Whatman GF/C filter. The nonspecific binding is measured in the presence of 10^−6M human orexin B. The IC50 values (concentration inhibiting 50% of the binding of radioiodinated orexin A to its receptors) are low, less than 300 nM, in particular less than 100 nM and more particularly less than 30 nM.

The target of another test is T2, human orexin 1 receptors (Homo sapiens, UniProt O43613).
T2 construct: expressed in transfected cells; host or cells: CHO cells (membrane preparation)
T2 sequence (O43613 1-425): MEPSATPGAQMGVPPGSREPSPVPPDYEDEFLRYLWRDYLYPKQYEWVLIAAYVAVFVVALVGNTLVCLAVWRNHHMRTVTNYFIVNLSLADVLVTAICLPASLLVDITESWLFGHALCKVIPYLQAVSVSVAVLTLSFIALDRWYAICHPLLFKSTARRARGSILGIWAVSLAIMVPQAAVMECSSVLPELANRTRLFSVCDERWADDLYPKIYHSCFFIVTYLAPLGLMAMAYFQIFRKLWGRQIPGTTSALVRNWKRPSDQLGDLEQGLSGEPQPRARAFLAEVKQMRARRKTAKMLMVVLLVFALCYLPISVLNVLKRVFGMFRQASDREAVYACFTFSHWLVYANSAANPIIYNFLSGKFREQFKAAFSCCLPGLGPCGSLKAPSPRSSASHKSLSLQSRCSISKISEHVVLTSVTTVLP
Nature of the test: in vitro binding test, same technique, radioiodinated orexin A, membrane preparation of CHO cells. The settings on record: Table 2, read-out: IC50 OX 1. Here is the method:
as §1
The affinity of the compounds according to the invention for the orexin 1 receptors was also studied in an in vitro binding test according to the same technique using radioiodinated orexin A as ligand in a membrane preparation of CHO cells expressing the human orexin 1 receptors. The compounds according to the invention have little or no affinity for the orexin 1 receptors.

The mark [1] stands for this setting: Table 2, in vitro binding test, 100 pM radioiodinated orexin A, 30 minutes at 25° C.

Consider `COc1ccc(S(=O)(=O)N(c2c(Cc3c(F)cccc3F)cccc2OC)[C@H]2CCNC2)cc1OC` (atropisomer, axis not shown) [Compound 6, N-[2-(2,6-difluorobenzyl)-6-methoxyphenyl]-3,4-dimethoxy-N-[(3S)-pyrrolidin-3-yl]benzenesulfonamide hydrochloride], for which the IC50 (in general, the concentration at which inhibition is half-maximal) at human orexin 2 receptors (Table 1, assay not given) was determined as 9.1 nM.

As for `COc1ccc(S(=O)(=O)N(c2c(Cc3c(F)cccc3F)cccc2OC)[C@H]2CCNC2)cc1OC` (atropisomer, axis not shown) [Compound 7, N-[2-(2,6-difluorobenzyl)-6-methoxyphenyl]-3,4-dimethoxy-N-[(3S)-pyrrolidin-3-yl]benzenesulfonamide hydrochloride], the IC50 on human orexin 2 receptors (setting [1]) is 9 nM; at human orexin 1 receptors it was 103 nM.

For the compound `COc1ccc(S(=O)(=O)N(c2ccc(Cl)cc2Cc2c(F)cccc2F)[C@H]2CCNC2)cc1OC` [Compound 1, N-[4-chloro-2-(2,6-difluorobenzyl)phenyl]-3,4-dimethoxy-N-[(3S)-pyrrolidin-3-yl]benzenesulfonamide hydrochloride], the IC50 was determined as 16.4 nM on human orexin 2 receptors (setting [1]) and 1380 nM at human orexin 1 receptors.

On to `COc1ccc(S(=O)(=O)N(c2c(Cc3ccccc3Cl)cccc2OC)[C@H]2CCNC2)cc1OC` [Compound 11, N-[2-(2-chlorobenzyl)-6-methoxyphenyl]-3,4-dimethoxy-N-[(3S)-pyrrolidin-3-yl]benzenesulfonamide hydrochloride], for which the IC50 at human orexin 2 receptors (Table 1, assay not given) was found to be 7.2 nM.

Regarding `COc1ccc(S(=O)(=O)N(c2c(Cc3c(F)cccc3F)cccc2OC)[C@H]2CCC[C@@H]2N)cc1OC` [Compound 14, N-[(1S,2S)-2-aminocyclopentyl]-N-[2-(2,6-difluorobenzyl)-6-methoxyphenyl]-3,4-dimethoxy-benzenesulfonamide hydrochloride], on human orexin 2 receptors (Table 1, assay not given), the IC50 is 10 nM.

For the compound `COc1ccc(S(=O)(=O)N(c2c(Cc3c(F)cccc3F)cc(Cl)cc2OC)[C@H]2CCNC2)cc1OC` [Compound 18, N-[2-(2,6-difluorobenzyl)-4-chloro-6-methoxyphenyl]-3,4-dimethoxy-N-[(3S)-pyrrolidin-3-yl]benzenesulfonamide hydrochloride], the IC50 on human orexin 2 receptors (Table 1, assay not given) was found to be 12 nM.
